From US9598415B2, “Compounds as modulators of RORγ” (Boehringer Ingelheim International GmbH, priority 2014, dated 2017)

Target: RORγ (Homo sapiens (Human), UniProt P51449)
Assay: Reporter Gene Assay (RGA): inhibition of RORγ transactivation of a luciferase reporter
Assay type: cell-based
Details: transiently transfected HEK 293 cells (Gal4DBD hRORC LBD), 20-24 h incubation

Sequence of RORγ (P51449 269-508): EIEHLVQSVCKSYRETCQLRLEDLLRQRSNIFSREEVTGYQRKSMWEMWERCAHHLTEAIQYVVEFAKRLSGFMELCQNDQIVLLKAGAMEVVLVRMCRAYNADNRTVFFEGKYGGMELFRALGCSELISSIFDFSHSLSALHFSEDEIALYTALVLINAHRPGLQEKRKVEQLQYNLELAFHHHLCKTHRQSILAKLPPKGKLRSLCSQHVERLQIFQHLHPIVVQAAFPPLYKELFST

SMILES	IC50 [nM]
CCS(=O)(=O)c1ccc(CNc2nc3cnc(-c4c(C)ncnc4C4CC4)nc3n([C@@H]3C[C@H]4CC[C@@H]3C4)c2=O)nc1 [Example 220]	390
CCS(=O)(=O)c1ccc(CNc2nc3cnc(-c4c(OC)ncnc4C4CC4)nc3n(C(C)C)c2=O)cc1 [Example 143]	134
CNS(=O)(=O)c1ccc(CNc2nc3cnc(-c4c(C)ncnc4C4CC4)nc3n([C@@H](C)C3CC3)c2=O)cc1 [Example 134]	400
